Source: PubChem BioAssay (NCI)
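Compound exposure: 48 hours, 5 concentrations, 96-well plates. The concentration for full growth arrest is given as TGI.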

Legend:
Test in all cases: NCI-60 cell line screen, 48 h
786-0 renal = test system: 786-0 renal
A498 renal = test system: A498 renal
A549 NSCLC = test system: A549 NSCLC
ACHN renal = test system: ACHN renal
BT-549 breast = test system: BT-549 breast
CAKI-1 renal = test system: CAKI-1 renal
CCRF-CEM leukemia = test system: CCRF-CEM leukemia
COLO 205 colon = test system: COLO 205 colon
DU-145 prostate = test system: DU-145 prostate
EKVX NSCLC = test system: EKVX NSCLC
HCC-2998 colon = test system: HCC-2998 colon
HCT-116 colon = test system: HCT-116 colon
HCT-15 colon = test system: HCT-15 colon
HOP-62 NSCLC = test system: HOP-62 NSCLC
HOP-92 NSCLC = test system: HOP-92 NSCLC
HS 578T breast = test system: HS 578T breast
HT29 colon = test system: HT29 colon
IGROV1 ovarian = test system: IGROV1 ovarian
KM12 colon = test system: KM12 colon
M14 melanoma = test system: M14 melanoma
MALME-3M melanoma = test system: MALME-3M melanoma
MCF7 breast = test system: MCF7 breast
MDA-MB-231 breast = test system: MDA-MB-231 breast
MDA-MB-435 = test system: MDA-MB-435
MDA-N = test system: MDA-N
MOLT-4 leukemia = test system: MOLT-4 leukemia
NCI-H226 lung = test system: NCI-H226 lung
NCI-H23 lung = test system: NCI-H23 lung
NCI-H522 lung = test system: NCI-H522 lung
NCI/ADR-RES ovarian = test system: NCI/ADR-RES ovarian
OVCAR-3 ovarian = test system: OVCAR-3 ovarian
OVCAR-4 ovarian = test system: OVCAR-4 ovarian
OVCAR-5 ovarian = test system: OVCAR-5 ovarian
OVCAR-8 ovarian = test system: OVCAR-8 ovarian
PC-3 prostate = test system: PC-3 prostate
RPMI-8226 leukemia = test system: RPMI-8226 leukemia
RXF 393 renal = test system: RXF 393 renal
SF-268 CNS = test system: SF-268 CNS
SF-295 CNS = test system: SF-295 CNS
SF-539 CNS = test system: SF-539 CNS
SK-MEL-2 melanoma = test system: SK-MEL-2 melanoma
SK-MEL-28 melanoma = test system: SK-MEL-28 melanoma
SK-MEL-5 melanoma = test system: SK-MEL-5 melanoma
SK-OV-3 ovarian = test system: SK-OV-3 ovarian
SN12C renal = test system: SN12C renal
SNB-19 CNS = test system: SNB-19 CNS
SNB-75 CNS = test system: SNB-75 CNS
SW-620 colon = test system: SW-620 colon
T-47D breast = test system: T-47D breast
TK-10 renal = test system: TK-10 renal
U251 CNS = test system: U251 CNS
UACC-257 melanoma = test system: UACC-257 melanoma
UACC-62 melanoma = test system: UACC-62 melanoma
UO-31 renal = test system: UO-31 renal
HL-60(TB) leukemia = test system: HL-60(TB) leukemia
LOX IMVI melanoma = test system: LOX IMVI melanoma
NCI-H460 lung = test system: NCI-H460 lung
SR leukemia = test system: SR leukemia
K-562 leukemia = test system: K-562 leukemia

With `Nc1nc(N)c2ncn(Cc3ccccc3)c2n1` the TGI (786-0 renal) was > 100 µM, the TGI (A498 renal) was > 100 µM and the TGI (A549 NSCLC) was > 100 µM. The TGI (ACHN renal) was > 100 µM, the TGI (BT-549 breast) was > 100 µM and the TGI (CAKI-1 renal) was > 100 µM. The TGI (CCRF-CEM leukemia) was > 100 µM, the TGI (COLO 205 colon) was > 100 µM and the TGI (DU-145 prostate) was > 100 µM. The TGI (EKVX NSCLC) was > 100 µM, the TGI (HCC-2998 colon) was > 100 µM and the TGI (HCT-116 colon) was > 100 µM. For the same molecule, the TGI (HCT-15 colon) was > 100 µM, the TGI (HOP-62 NSCLC) was > 100 µM and the TGI (HOP-92 NSCLC) was > 100 µM. For the same molecule, the TGI (HS 578T breast) was > 100 µM, the TGI (HT29 colon) was > 100 µM and the TGI (IGROV1 ovarian) was > 100 µM. For the same molecule, the TGI (KM12 colon) was > 100 µM, the TGI (M14 melanoma) was > 100 µM and the TGI (MALME-3M melanoma) was > 100 µM. The TGI (MCF7 breast) was > 100 µM, the TGI (MDA-MB-231 breast) was > 100 µM and the TGI (MDA-MB-435) was > 100 µM. The TGI (MDA-N) was > 100 µM, the TGI (MOLT-4 leukemia) was > 100 µM and the TGI (NCI-H226 lung) was > 100 µM. For the same molecule, the TGI (NCI-H23 lung) was > 100 µM, the TGI (NCI-H522 lung) was > 100 µM and the TGI (NCI/ADR-RES ovarian) was > 100 µM. For the same molecule, the TGI (OVCAR-3 ovarian) was > 100 µM, the TGI (OVCAR-4 ovarian) was > 100 µM and the TGI (OVCAR-5 ovarian) was > 100 µM. For the same molecule, the TGI (OVCAR-8 ovarian) was > 100 µM, the TGI (PC-3 prostate) was > 100 µM and the TGI (RPMI-8226 leukemia) was > 100 µM. The TGI (RXF 393 renal) was > 100 µM, the TGI (SF-268 CNS) was > 100 µM and the TGI (SF-295 CNS) was > 100 µM. The TGI (SF-539 CNS) was > 100 µM, the TGI (SK-MEL-2 melanoma) was > 100 µM and the TGI (SK-MEL-28 melanoma) was > 100 µM. For the same molecule, the TGI (SK-MEL-5 melanoma) was > 100 µM, the TGI (SK-OV-3 ovarian) was > 100 µM and the TGI (SN12C renal) was > 100 µM. The TGI (SNB-19 CNS) was > 100 µM, the TGI (SNB-75 CNS) was 0.937 µM and the TGI (SW-620 colon) was > 100 µM. The TGI (T-47D breast) was > 100 µM, the TGI (TK-10 renal) was > 100 µM and the TGI (U251 CNS) was > 100 µM. The TGI (UACC-257 melanoma) was > 100 µM, the TGI (UACC-62 melanoma) was > 100 µM and the TGI (UO-31 renal) was > 100 µM.
With `Cc1ccc(C(=O)C2CC3(CCC2(O)c2ccc(C)cc2)CC(=O)Nc2ccccc2C3=O)cc1` (centres undefined) the TGI (A498 renal) was > 100 µM, the TGI (A549 NSCLC) was > 100 µM and the TGI (BT-549 breast) was > 100 µM. The TGI (CAKI-1 renal) was > 100 µM, the TGI (CCRF-CEM leukemia) was > 100 µM and the TGI (COLO 205 colon) was > 100 µM. For the same molecule, the TGI (DU-145 prostate) was > 100 µM, the TGI (EKVX NSCLC) was > 100 µM and the TGI (HCC-2998 colon) was > 100 µM. The TGI (HCT-116 colon) was > 100 µM, the TGI (HCT-15 colon) was > 100 µM and the TGI (HL-60(TB) leukemia) was > 100 µM. For the same molecule, the TGI (HOP-62 NSCLC) was > 100 µM, the TGI (HOP-92 NSCLC) was > 100 µM and the TGI (HS 578T breast) was > 100 µM. The TGI (HT29 colon) was > 100 µM, the TGI (IGROV1 ovarian) was > 100 µM and the TGI (LOX IMVI melanoma) was > 100 µM. The TGI (M14 melanoma) was > 100 µM, the TGI (MALME-3M melanoma) was > 100 µM and the TGI (MCF7 breast) was > 100 µM. The TGI (MDA-MB-231 breast) was > 100 µM, the TGI (MDA-MB-435) was > 100 µM and the TGI (MDA-N) was > 100 µM. The TGI (MOLT-4 leukemia) was > 100 µM, the TGI (NCI-H226 lung) was > 100 µM and the TGI (NCI-H23 lung) was > 100 µM. The TGI (NCI-H460 lung) was > 100 µM, the TGI (NCI/ADR-RES ovarian) was > 100 µM and the TGI (OVCAR-3 ovarian) was > 100 µM. For the same molecule, the TGI (OVCAR-5 ovarian) was > 100 µM, the TGI (OVCAR-8 ovarian) was > 100 µM and the TGI (PC-3 prostate) was > 100 µM. For the same molecule, the TGI (RXF 393 renal) was > 100 µM, the TGI (SF-268 CNS) was > 100 µM and the TGI (SF-295 CNS) was > 100 µM. The TGI (SF-539 CNS) was > 100 µM, the TGI (SK-MEL-2 melanoma) was > 100 µM and the TGI (SK-MEL-28 melanoma) was > 100 µM. For the same molecule, the TGI (SK-MEL-5 melanoma) was 97.6 µM, the TGI (SK-OV-3 ovarian) was > 100 µM and the TGI (SN12C renal) was > 100 µM. For the same molecule, the TGI (SNB-19 CNS) was > 100 µM, the TGI (SNB-75 CNS) was 93.5 µM and the TGI (SR leukemia) was > 100 µM. For the same molecule, the TGI (SW-620 colon) was > 100 µM, the TGI (T-47D breast) was > 100 µM and the TGI (TK-10 renal) was > 100 µM. For the same molecule, the TGI (U251 CNS) was > 100 µM, the TGI (UACC-257 melanoma) was > 100 µM and the TGI (UACC-62 melanoma) was > 100 µM. The TGI (UO-31 renal) was > 100 µM.
For `CCOC(=O)c1c(SCCN(CC)CC)n(-c2ccccc2)c(=S)n(-c2ccccc2)c1=O`, the TGI (786-0 renal) was 3.17 µM, the TGI (A498 renal) was 29 µM and the TGI (A549 NSCLC) was 9.42 µM. It also gave a TGI (ACHN renal) of 3.2 µM, a TGI (BT-549 breast) of 18.6 µM and a TGI (CAKI-1 renal) of 4.68 µM. The TGI (CCRF-CEM leukemia) was 3.34 µM, the TGI (COLO 205 colon) was 6.2 µM and the TGI (DU-145 prostate) was 3.06 µM. For the same molecule, the TGI (EKVX NSCLC) was 24.8 µM, the TGI (HCC-2998 colon) was 3.46 µM and the TGI (HCT-116 colon) was 8.13 µM. The TGI (HCT-15 colon) was 7.28 µM, the TGI (HL-60(TB) leukemia) was 3.61 µM and the TGI (HOP-62 NSCLC) was 32.6 µM. For the same molecule, the TGI (HOP-92 NSCLC) was 4.15 µM, the TGI (HS 578T breast) was 28 µM and the TGI (HT29 colon) was 12.6 µM. The TGI (IGROV1 ovarian) was 13.2 µM, the TGI (K-562 leukemia) was 4.32 µM and the TGI (KM12 colon) was 28.5 µM. It also gave a TGI (LOX IMVI melanoma) of 4.03 µM, a TGI (M14 melanoma) of 3.13 µM and a TGI (MALME-3M melanoma) of 3.06 µM. For the same molecule, the TGI (MDA-MB-231 breast) was 9.04 µM, the TGI (MDA-MB-435) was 4.81 µM and the TGI (MDA-N) was 7 µM. The TGI (MOLT-4 leukemia) was 3.33 µM, the TGI (NCI-H226 lung) was 41.1 µM and the TGI (NCI-H23 lung) was 44.6 µM. The TGI (NCI-H460 lung) was 15.6 µM, the TGI (NCI-H522 lung) was 3.67 µM and the TGI (NCI/ADR-RES ovarian) was > 100 µM. For the same molecule, the TGI (OVCAR-3 ovarian) was 3.36 µM, the TGI (OVCAR-4 ovarian) was 25.5 µM and the TGI (OVCAR-5 ovarian) was > 57.6 µM. It also gave a TGI (OVCAR-8 ovarian) of 7.19 µM, a TGI (PC-3 prostate) of 4.1 µM and a TGI (RPMI-8226 leukemia) of 3.87 µM. The TGI (RXF 393 renal) was 3.28 µM, the TGI (SF-268 CNS) was 9.9 µM and the TGI (SF-295 CNS) was > 100 µM. For the same molecule, the TGI (SF-539 CNS) was 9.11 µM, the TGI (SK-MEL-2 melanoma) was 30.1 µM and the TGI (SK-MEL-28 melanoma) was 11.9 µM. The TGI (SK-MEL-5 melanoma) was 7.6 µM, the TGI (SK-OV-3 ovarian) was 40.2 µM and the TGI (SN12C renal) was 3.4 µM. The TGI (SNB-19 CNS) was 31.9 µM, the TGI (SNB-75 CNS) was 23.4 µM and the TGI (SR leukemia) was 2.6 µM. For the same molecule, the TGI (SW-620 colon) was > 24.2 µM, the TGI (T-47D breast) was 15.3 µM and the TGI (TK-10 renal) was 3.39 µM. It also gave a TGI (U251 CNS) of 29.6 µM, a TGI (UACC-257 melanoma) of 5.46 µM and a TGI (UACC-62 melanoma) of 9.1 µM. For the same molecule, the TGI (UO-31 renal) was 3.12 µM.
